This experiment concerns CD2F1 mice, L1210 leukemia ip, survival T/C. The experiment in a line: NCI In Vivo Anticancer Drug Screen. Data for tumor model L1210 Leukemia (intraperitoneal) in CD2F1 (CDF1) mice. Particulars: higher = longer survival. The method, boiled down:
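Mice carrying a transplanted tumor received test compound or vehicle alone. The value is the measurement in the treated group divided by that in the vehicle-treated control group.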

[1] abbreviates: endpoint: mean survival time, dose: 25.0 mg/kg/injection, schedule: Q01DX009 (ip), vehicle: saline with Tween-80.
The mark [2] stands for this setting: endpoint: mean survival time, dose: 50.0 mg/kg/injection, schedule: Q01DX009 (ip), vehicle: saline with Tween-80.
[3] abbreviates: endpoint: mean survival time, dose: 100.0 mg/kg/injection, schedule: Q01DX009 (ip), vehicle: saline with Tween-80.
Setting [4] is: endpoint: mean survival time, dose: 100.0 mg/kg/injection, schedule: Q04DX003 (ip), vehicle: saline with Tween-80.
[5] abbreviates: endpoint: mean survival time, dose: 200.0 mg/kg/injection, schedule: Q04DX003 (ip), vehicle: saline with Tween-80.
Where [6] appears, read: endpoint: mean survival time, dose: 400.0 mg/kg/injection, schedule: Q04DX003 (ip), vehicle: saline with Tween-80.
Setting [7] is: endpoint: mean survival time, dose: 200.0 mg/kg/injection, schedule: Q01DX009 (ip), vehicle: saline with Tween-80.
Setting [8] is: endpoint: mean survival time, dose: 400.0 mg/kg/injection, schedule: Q01DX009 (ip), vehicle: saline with Tween-80.
The mark [9] stands for this setting: endpoint: mean survival time, dose: 50.0 mg/kg/injection, schedule: Q01DX009 (ip), vehicle: saline.
The mark [10] stands for this setting: endpoint: mean survival time, dose: 100.0 mg/kg/injection, schedule: Q01DX001 (ip), vehicle: saline.
Setting [11] is: endpoint: mean survival time, dose: 200.0 mg/kg/injection, schedule: Q01DX001 (ip), vehicle: saline.
[12] abbreviates: endpoint: mean survival time, dose: 400.0 mg/kg/injection, schedule: Q01DX001 (ip), vehicle: saline.
Setting [13] is: endpoint: mean survival time, dose: 12.5 mg/kg/injection, schedule: Q01DX009 (ip), vehicle: saline with Tween-80.
The mark [14] stands for this setting: endpoint: mean survival time, dose: 100.0 mg/kg/injection, schedule: Q01DX009 (ip), vehicle: saline.
[15] abbreviates: endpoint: mean survival time, dose: 200.0 mg/kg/injection, schedule: Q01DX009 (ip), vehicle: saline.
The mark [16] stands for this setting: endpoint: mean survival time, dose: 25.0 mg/kg/injection, schedule: Q01DX009 (ip), vehicle: other.
The mark [17] stands for this setting: endpoint: mean survival time, dose: 50.0 mg/kg/injection, schedule: Q01DX009 (ip), vehicle: other.
Where [18] appears, read: endpoint: mean survival time, dose: 100.0 mg/kg/injection, schedule: Q01DX009 (ip), vehicle: other.

Results on 20 compounds are retold here after PubChem BioAssay AID256 (DTP/NCI, 2004).

Values joined by “and” are separate entries in the source; they are usually repeats but may differ in a detail not shown here. Equal values may be shown once. Inconclusive results and toxic doses are left out.

In the case of `Nc1c(Br)cc2c(c1Br)Cc1cc(Cl)ccc1-2`, the T/C is 107 % of control under setting [1]; 111 % of control (endpoint: mean survival time, dose: 25.0 mg/kg/injection, schedule: Q04DX003 (ip), vehicle: saline with Tween-80); 103 % of control under setting [2]; 103 % of control (endpoint: mean survival time, dose: 50.0 mg/kg/injection, schedule: Q04DX003 (ip), vehicle: saline with Tween-80); 102 % of control under setting [3]; 105 % of control under setting [4]. Moreover, the T/C was 100 % of control under setting [5] and 86 % of control under setting [6].
As to `O=C([CH-]C(=O)C(F)(F)F)c1ccccc1.O=C([CH-]C(=O)C(F)(F)F)c1ccccc1.O=C([CH-]C(=O)C(F)(F)F)c1ccccc1.O=C([CH-]C(=O)C(F)(F)F)c1ccccc1.[Eu+3].c1ccncc1`, the T/C was 95 % of control and 101 % of control (endpoint: mean survival time, dose: 12.5 mg/kg/injection, schedule: Q01DX009 (ip), vehicle: Klucel (hydroxypropylcellulose) (HPC)); 101 % of control (endpoint: mean survival time, dose: 25.0 mg/kg/injection, schedule: Q01DX009 (ip), vehicle: Klucel (hydroxypropylcellulose) (HPC)); 89 % of control and 106 % of control (endpoint: mean survival time, dose: 50.0 mg/kg/injection, schedule: Q01DX009 (ip), vehicle: Klucel (hydroxypropylcellulose) (HPC)); 97 % of control and 109 % of control (endpoint: mean survival time, dose: 100.0 mg/kg/injection, schedule: Q01DX009 (ip), vehicle: Klucel (hydroxypropylcellulose) (HPC)); 95 % of control and 100 % of control (endpoint: mean survival time, dose: 200.0 mg/kg/injection, schedule: Q01DX009 (ip), vehicle: Klucel (hydroxypropylcellulose) (HPC)); 97 % of control and 100 % of control (endpoint: mean survival time, dose: 400.0 mg/kg/injection, schedule: Q01DX009 (ip), vehicle: Klucel (hydroxypropylcellulose) (HPC)).
Take `CN(C)c1ccc(/C=C(\C#N)c2ccc(Cl)cc2)c(Cl)c1`: the T/C was 90 % of control under setting [3]; 86 % of control under setting [4]; 94 % of control under setting [7]; 89 % of control under setting [5]; 90 % of control under setting [8]; 86 % of control under setting [6].
Turning to `c1ccc([B-]2([C+]3CCCCC3)N3CCCCC3C3CCCCN32)cc1` (centres undefined), the T/C runs as follows: (endpoint: mean survival time, dose: 3.12 mg/kg/injection, schedule: Q01DX009 (ip), vehicle: saline) 90 % of control; (endpoint: mean survival time, dose: 6.25 mg/kg/injection, schedule: Q01DX009 (ip), vehicle: saline) 95 % of control; (endpoint: mean survival time, dose: 12.5 mg/kg/injection, schedule: Q01DX009 (ip), vehicle: saline) 101 % of control; (endpoint: mean survival time, dose: 25.0 mg/kg/injection, schedule: Q01DX009 (ip), vehicle: saline) 102 % of control; under setting [9], 86 % of control.
Take `c1ccc(OCCSc2ccccc2)cc1`: the T/C was 102 % of control under setting [10], 104 % of control under setting [11] and 104 % of control under setting [12].
With `CC1CN(C(=N)C#N)C(C)CN1C(=N)C#N` (centres undefined), the T/C by setting is: (endpoint: mean survival time, dose: 6.25 mg/kg/injection, schedule: Q01DX009 (ip), vehicle: saline with Tween-80) 96 % of control; under setting [13], 102 % of control; under setting [1], 105 % of control.
On to `CN1CCN(C(=S)S)CC1`, for which the T/C under setting [13] was 100 % of control, the T/C under setting [1] was 95 % of control and the T/C under setting [2] was 100 % of control.
Consider `CCCCc1c(N)nc(N)nc1N`, for which the T/C (endpoint: mean survival time, dose: 18.7 mg/kg/injection, schedule: Q01DX001 (ip), vehicle: saline with Tween-80) is 104 % of control; the T/C (endpoint: mean survival time, dose: 37.5 mg/kg/injection, schedule: Q01DX001 (ip), vehicle: saline with Tween-80) is 100 % of control; the T/C (endpoint: mean survival time, dose: 75.0 mg/kg/injection, schedule: Q01DX001 (ip), vehicle: saline with Tween-80) was 109 % of control.
On to `CNC(=O)Oc1ccc2c(c1)OCO2`, for which the T/C by setting is: under setting [9], 96 % of control; under setting [14], 112 % of control; under setting [15], 100 % of control.
On to `CCC(=O)OC1(c2ccccc2)CCN(C/C=C/c2ccccc2[N+](=O)[O-])CC1`, for which the T/C is 100 % of control (endpoint: median survival time, dose: 12.5 mg/kg/injection, schedule: Q04DX003 (ip), vehicle: saline with Tween-80); 88 % of control (endpoint: median survival time, dose: 25.0 mg/kg/injection, schedule: Q04DX003 (ip), vehicle: saline with Tween-80); 100 % of control (endpoint: median survival time, dose: 50.0 mg/kg/injection, schedule: Q04DX003 (ip), vehicle: saline with Tween-80); 100 % of control (endpoint: median survival time, dose: 100.0 mg/kg/injection, schedule: Q04DX003 (ip), vehicle: saline with Tween-80).
Consider `Cc1ccc(Sc2cccc3c2C(=O)c2c(Sc4ccc(C)cc4)cccc2C3=O)cc1`, for which the T/C under setting [3] is 93 % of control and the T/C under setting [7] is 86 % of control.
For the compound `CC[C@@]1(OC(=O)CN2CCNCC2)C(=O)OCc2c1cc1n(c2=O)Cc2cc3ccccc3nc2-1`, the T/C (endpoint: median survival time, dose: 6.25 mg/kg/injection, schedule: Q04DX002 (ip), vehicle: water) was 106 % of control; the T/C (endpoint: median survival time, dose: 12.5 mg/kg/injection, schedule: Q04DX002 (ip), vehicle: water) was 116 % of control; the T/C (endpoint: median survival time, dose: 50.0 mg/kg/injection, schedule: Q04DX002 (ip), vehicle: water) is 153 % of control and 170 % of control; the T/C (endpoint: median survival time, dose: 100.0 mg/kg/injection, schedule: Q04DX002 (ip), vehicle: water) was 268 % of control.
Regarding `CCc1ccc(-n2cnc3c(=O)[nH]c(N)nc32)cc1`, the T/C (endpoint: mean survival time, dose: 100.0 mg/kg/injection, schedule: Q01DX001 (ip), vehicle: saline with Tween-80) was 87 % of control and the T/C (endpoint: mean survival time, dose: 400.0 mg/kg/injection, schedule: Q01DX001 (ip), vehicle: saline with Tween-80) is 93 % of control.
Turning to `COC(=O)C(N)CSSCC(N)C(=O)OC` (centres undefined), the T/C runs as follows: under setting [10], 108 % of control; under setting [14], 102 % of control; under setting [11], 97 % of control; under setting [15], 94 % of control; under setting [12], 100 % of control; (endpoint: mean survival time, dose: 400.0 mg/kg/injection, schedule: Q01DX009 (ip), vehicle: saline) 94 % of control.
In the case of `O=C(C1CCC2(CCCCC2)CC1)n1ccnc1`, the T/C was 95 % of control (endpoint: mean survival time, dose: 12.5 mg/kg/injection, schedule: Q01DX009 (ip), vehicle: other); 89 % of control under setting [16]; 106 % of control under setting [17]; 93 % of control under setting [18]; 97 % of control (endpoint: mean survival time, dose: 200.0 mg/kg/injection, schedule: Q01DX009 (ip), vehicle: other).
Turning to `CC(C)NC(=O)N(c1ccccc1)C(C)C`, the T/C under setting [3] was 102 % of control and the T/C under setting [7] is 90 % of control.
Take `CCCCCCCCCCCCCC(=O)OC1C(CO)OC2C1Oc1nc(=N)ccn12` (centres undefined): the T/C was 153 % of control under setting [16], 212 % of control under setting [17] and 278 % of control under setting [18].
Take `CC[C@@]1(O)C[C@H](OC2CC(N(C)C)C(OC3CC(O)C(O[C@@H]4O[C@@H](C)C(=O)C=C4N)C(C)O3)C(C)O2)c2c(cc3c(c2O)C(=O)c2c(O)ccc(O)c2C3=O)[C@H]1C(=O)OC` (some centres undefined): the T/C was 102 % of control (endpoint: mean survival time, dose: 0.02 mg/kg/injection, schedule: Q01DX009 (ip), vehicle: suspension in saline); 96 % of control (endpoint: mean survival time, dose: 0.05 mg/kg/injection, schedule: Q01DX009 (ip), vehicle: suspension in saline); 103 % of control (endpoint: mean survival time, dose: 0.1 mg/kg/injection, schedule: Q01DX009 (ip), vehicle: suspension in saline); 115 % of control (endpoint: mean survival time, dose: 0.2 mg/kg/injection, schedule: Q01DX009 (ip), vehicle: suspension in saline); 108 % of control (endpoint: mean survival time, dose: 0.4 mg/kg/injection, schedule: Q01DX009 (ip), vehicle: suspension in saline); 123 % of control (endpoint: mean survival time, dose: 0.8 mg/kg/injection, schedule: Q01DX009 (ip), vehicle: suspension in saline). In addition, the T/C (endpoint: mean survival time, dose: 1.6 mg/kg/injection, schedule: Q01DX009 (ip), vehicle: suspension in saline) was 111 % of control.
For `Cc1nc(-c2ccccc2)c(Cc2c(O)ccc3ccccc23)c(=O)[nH]1`, the T/C was 97 % of control under setting [10], 100 % of control under setting [11] and 100 % of control under setting [12].
`O=S1(=O)Cc2ccc(Br)cc2C1`: the T/C is 103 % of control under setting [3]; 90 % of control under setting [4]; 101 % of control under setting [7]; 91 % of control under setting [5]; 97 % of control under setting [8]; 90 % of control under setting [6].
